Patent US10435405B2, “Pyrazolopyridine compounds and uses thereof” (Incyte Corporation, priority 2016, dated 2019)

Biological target: HPK1 (Homo sapiens (Human), UniProt Q92918)
Test: HPK1 Kinase Binding Assay
Method in brief: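 Active HPK1 (added as 4 nM solution) was combined with compound (3-fold, 11-point series) and tracer 222 (18 nM) plus Eu-anti-GST antibody (4 nM) in 50 mM HEPES pH 7.5 with MgCl2 and DTT. After 1 h at 25 °C plates were read. Ki values were derived.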

HPK1, sequence (Q92918 1-346): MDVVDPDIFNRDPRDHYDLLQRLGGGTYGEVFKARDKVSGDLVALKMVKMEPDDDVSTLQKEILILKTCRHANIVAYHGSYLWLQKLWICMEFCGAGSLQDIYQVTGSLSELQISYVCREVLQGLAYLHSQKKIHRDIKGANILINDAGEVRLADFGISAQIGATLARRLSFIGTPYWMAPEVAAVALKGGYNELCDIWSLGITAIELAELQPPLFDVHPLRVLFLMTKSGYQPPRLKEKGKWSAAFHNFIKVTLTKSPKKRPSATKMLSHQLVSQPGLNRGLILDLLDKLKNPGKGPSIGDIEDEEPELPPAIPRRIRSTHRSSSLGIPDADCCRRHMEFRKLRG

SMILES	Ki [nM]
CCN(C)c1cccc(-c2n[nH]c3cnc(-c4c(C)cc(CNC)cc4F)cc23)n1 [Example 118, N-Ethyl-6-(5-(2-fluoro-6-methyl-4-((methylamino)methyl)phenyl)-1H-pyrazolo[3,4-c]pyridin-3-yl)-N-methylpyridin-2-amine]	≤ 100
CNCc1cc(F)c(-c2cc3c(-c4ccc(N5CCN(C)CC5)nc4)n[nH]c3cn2)c(C(F)(F)F)c1 [Example 119, 1-(3-Fluoro-4-(3-(6-(4-methylpiperazin-1-yl)pyridin-3-yl)-1H-pyrazolo[3,4-c]pyridin-5-yl)-5-(trifluoromethyl)phenyl)-N-methylmethanamine]	≤ 100
CNCc1cc(F)c(-c2cc3c(-c4ccc(C5CC5)nc4)n[nH]c3cn2)c(C(F)(F)F)c1 [Example 120, 1-(4-(3-(6-Cyclopropylpyridin-3-yl)-1H-pyrazolo[3,4-c]pyridin-5-yl)-3-fluoro-5-(trifluoromethyl)phenyl)-N-methylmethanamine]	≤ 100
CNCc1cc(F)c(-c2cc3c(-c4ccc(N5CCOCC5)nc4)n[nH]c3cn2)c(C(F)(F)F)c1 [Example 121, 1-(3-Fluoro-4-(3-(6-morpholinopyridin-3-yl)-1H-pyrazolo[3,4-c]pyridin-5-yl)-5-(trifluoromethyl)phenyl)-N-methylmethanamine]	≤ 100
CNCc1cc(F)c(-c2cc3c(-c4cnn(C)c4)n[nH]c3cn2)c(F)c1 [Example 122, 1-(3,5-Difluoro-4-(3-(1-methyl-1H-pyrazol-4-yl)-1H-pyrazolo[3,4-c]pyridin-5-yl)phenyl)-N-methylmethanamine]	≤ 100
CC(C)NCc1cc(F)c(-c2cc3c(-c4cnn(C)c4)n[nH]c3cn2)c(F)c1 [Example 123, N-(3,5-Difluoro-4-(3-(1-methyl-1H-pyrazol-4-yl)-1H-pyrazolo[3,4-c]pyridin-5-yl)benzyl)propan-2-amine]	≤ 100
Cn1cc(-c2n[nH]c3cnc(-c4c(F)cc(CNc5ccccn5)cc4F)cc23)cn1 [Example 124, N-(3,5-Difluoro-4-(3-(1-methyl-1H-pyrazol-4-yl)-1H-pyrazolo[3,4-c]pyridin-5-yl)benzyl)pyridin-2-amine]	≤ 100
Cn1cc(-c2n[nH]c3cnc(-c4c(F)cc(CNc5ccn(C)n5)cc4F)cc23)cn1 [Example 125, N-(3,5-Difluoro-4-(3-(1-methyl-1H-pyrazol-4-yl)-1H-pyrazolo[3,4-c]pyridin-5-yl)benzyl)-1-methyl-1H-pyrazol-3-amine]	≤ 100
Cn1cc(-c2n[nH]c3cnc(-c4c(F)cc(CNCCO)cc4F)cc23)cn1 [Example 126, 2-(3,5-Difluoro-4-(3-(1-methyl-1H-pyrazol-4-yl)-1H-pyrazolo[3,4-c]pyridin-5-yl)benzylamino)ethanol]	≤ 100
CNCc1ccc(F)c(-c2cc3c(-c4cnn(C)c4)n[nH]c3cn2)c1F [Example 127, 1-(2,4-Difluoro-3-(3-(1-methyl-1H-pyrazol-4-yl)-1H-pyrazolo[3,4-c]pyridin-5-yl)phenyl)-N-methylmethanamine]	≤ 100
CC(C)NCc1ccc(F)c(-c2cc3c(-c4cnn(C)c4)n[nH]c3cn2)c1F [Example 128, N-(2,4-Difluoro-3-(3-(1-methyl-1H-pyrazol-4-yl)-1H-pyrazolo[3,4-c]pyridin-5-yl)benzyl)propan-2-amine]	≤ 100
Cn1cc(-c2n[nH]c3cnc(-c4c(F)ccc(CNC5CC5)c4F)cc23)cn1 [Example 129, N-(2,4-Difluoro-3-(3-(1-methyl-1H-pyrazol-4-yl)-1H-pyrazolo[3,4-c]pyridin-5-yl)benzyl)cyclo propanamine]	≤ 100
COC1CCCN(Cc2ccc(F)c(-c3cc4c(-c5cnn(C)c5)n[nH]c4cn3)c2F)C1 (stereo not drawn) [Example 130, 5-(2,6-Difluoro-3-((3-methoxypiperidin-1-yl)methyl)phenyl)-3-(1-methyl-1H-pyrazol-4-yl)-1H-pyrazolo[3,4-c]pyridine]	≤ 100
CNCc1cc(F)c(-c2cc3c(-c4cnn(C)c4)n[nH]c3cn2)c(C(F)(F)F)c1 [Example 131, 1-(3-Fluoro-4-(3-(1-methyl-1H-pyrazol-4-yl)-1H-pyrazolo[3,4-c]pyridin-5-yl)-5-(trifluoromethyl)phenyl)-N-methylmethanamine]	≤ 100
CNCc1cc(F)c(-c2cc3c(-c4ccc(N5CCN(C)CC5)cc4)n[nH]c3cn2)c(C(F)(F)F)c1 [Example 132, 1-(3-Fluoro-4-(3-(4-(4-methylpiperazin-1-yl)phenyl)-1H-pyrazolo[3,4-c]pyridin-5-yl)-5-(trifluoromethyl)phenyl)-N-methylmethanamine]	≤ 100
CCn1cc(-c2n[nH]c3cnc(-c4c(C)cc(CNC)cc4F)cc23)cn1 [Example 133, 1-(4-(3-(1-Ethyl-1H-pyrazol-4-yl)-1H-pyrazolo[3,4-c]pyridin-5-yl)-3-fluoro-5-methylphenyl)-N-methylmethanamine]	≤ 100
CNCc1cc(C)c(-c2cc3c(-c4cnn(C5CC5)c4)n[nH]c3cn2)c(F)c1 [Example 134, 1-(4-(3-(1-Cyclopropyl-1H-pyrazol-4-yl)-1H-pyrazolo[3,4-c]pyridin-5-yl)-3-fluoro-5-methylphenyl)-N-methylmethanamine]	≤ 100
CNCc1cc(C)c(-c2cc3c(-c4cnn(-c5ccccc5C#N)c4)n[nH]c3cn2)c(F)c1 [Example 135, 2-(4-(5-(2-Fluoro-6-methyl-4-((methylamino)methyl)phenyl)-1H-pyrazolo[3,4-c]pyridin-3-yl)-1H-pyrazol-1-yl)benzonitrile]	≤ 100
CNCc1cc(C)c(-c2cc3c(-c4cnn(C5CCOCC5)c4)n[nH]c3cn2)c(F)c1 [Example 136, 1-(3-Fluoro-5-methyl-4-(3-(1-(tetrahydro-2H-pyran-4-yl)-1H-pyrazol-4-yl)-1H-pyrazolo[3,4-c]pyridin-5-yl)phenyl)-N-methylmethanamine]	≤ 100
CNC1(c2cc(F)c(-c3cc4c(-c5cnn(C)c5)n[nH]c4cn3)c(F)c2)CC1 [Example 137, 1-(3,5-Difluoro-4-(3-(1-methyl-1H-pyrazol-4-yl)-1H-pyrazolo[3,4-c]pyridin-5-yl)phenyl)-N-methylcyclopropanamine]	≤ 100
CNCc1ccc(F)c(-c2cc3c(-c4cnn(C)c4)n[nH]c3cn2)c1OC [Example 138, 1-(4-Fluoro-2-methoxy-3-(3-(1-methyl-1H-pyrazol-4-yl)-1H-pyrazolo[3,4-c]pyridin-5-yl)phenyl)-N-methylmethanamine]	≤ 100
CCNCc1ccc(F)c(-c2cc3c(-c4cnn(C)c4)n[nH]c3cn2)c1OC [Example 139, N-(4-Fluoro-2-methoxy-3-(3-(1-methyl-1H-pyrazol-4-yl)-1H-pyrazolo[3,4-c]pyridin-5-yl)benzyl)ethanamine]	≤ 100
CC(C)NCc1cc(F)c(-c2cc3c(NC(=O)c4ccc(N5CCN(C)CC5)cc4)n[nH]c3cn2)c(F)c1 [Example 140, N-(5-(2,6-Difluoro-4-((isopropylamino)methyl)phenyl)-1H-pyrazolo[3,4-c]pyridin-3-yl)-4-(4-methylpiperazin-1-yl)benzamide]	≤ 100
CN1CCN(c2ccc(C(=O)Nc3n[nH]c4cnc(-c5c(F)cc(CN6CCCC6)cc5F)cc34)cc2)CC1 [Example 141, N-(5-(2,6-Difluoro-4-(pyrrolidin-1-ylmethyl)phenyl)-1H-pyrazolo[3,4-c]pyridin-3-yl)-4-(4-methylpiperazin-1-yl)benzamide]	≤ 100
